Results reported in patent US20040208866A1, “Methods of regulating body weight” (priority 2002, published 2004).

Legend:
[1] = test system: antral portion of the stomach; experiment: Gastrointestinal contractility: distance between transducing crystals on the antral stomach; type: in vivo, Sprague-Dawley rats
Description: Two male Sprague-Dawley rats, approximately 12 weeks old (Harlan, Indianapolis, Ind.) were anesthetized with urethane and their stomachs were exposed through a small abdominal incision. Two 2.4 mm transducing crystals (Sonometrics, Ontario, Canada) were placed on the antral portion of the stomach such that circular contractions could be monitored as a change in the distance between the two crystals. The crystals were attached with VETBOND TISSUE ADHESIVE (3M, St. Paul, Minn.). […] The amplitude of the NE-induced decrease was approximately 50% of the acetylcholine-induced increase in distance. Both responses were transient. A negative control of […] of phosphate buffer solution (PBS) applied topically between the crystals had no effect. A 14 amino acid zsig33 peptide (zsig33-1, as shown in Example 4) was dissolved in PBS and […] was applied topically for a final concentration of 1 μg, 10 μg or 100 μg.

ob/ob mice [2] = experiment: Glucose absorption after oral glucose challenge; type: in vivo; details: 100 μg by oral gavage 30 minutes prior to oral glucose challenge, female ob/ob mice
Protocol: Eight female ob/ob mice, approximately 6 weeks old (Jackson Labs, Bar Harbor, Me.) were adapted to a 4 hour daily feeding schedule for two weeks. After two weeks on the feeding schedule, the mice were given 100 μg of a zsig33 peptide (zsig33-1, as shown in Example 4) in 100 μl sterile 0.1% BSA by oral gavage, immediately after their eating period (post-prandially). Thirty minutes later, the mice were challenged orally with a 0.5 ml volume of 25% glucose. Retroorbital bleeds were done to determine serum glucose levels. Blood was drawn prior to zsig33 dosing, prior to oral glucose challenge, and at 1, 2, 4, and 20 hours following the glucose challenge.

Balb C male mice = experiment: Binding studies of FITC-labelled zsig33 peptides in situ after tail vein injection; type: in vivo; details: FITC-labelled peptide, 0.5 mg per mouse by tail vein, 15 minutes circulation, fluorescent microscopy at 495 nm
Protocol: Ten week old Balb C male mice were anesthetized via intramuscular injection and tested for binding of zsig33 peptides in vivo.
Two peptides were tested: the first peptide, zsig33-1, (See Example 4) consisted of residues 24 to 37 of SEQ ID NO:2, and the second peptide, zsig33-2, consisted of residues 24 to 41 of SEQ ID NO:2. A single glycine was used as a negative control. Additionally, a “scrambled” negative control consisting of residues the first peptide which had been rearranged (SEQ ID NO:15) was also tested. The peptides and controls were coupled to fluorescein isothiocyantate (FITC, Molecular Probes, Eugene, Oreg.) in the following manner: The peptides, glycine control and FITC were dissolved in 0.1 M sodium bicarbonate at pH 9.0 to a concentration of 2.0 mg/ml for the peptides and glycine control and 5 mg/ml for FITC, avoiding exposure of the FITC to strong light. […] The buffer was changed daily and unbound FITC in the post-dialyzed buffer was measured by HPLC. […] Peptide- or glycine-bound FITC was determined by measuring the absorbance of the dialyzed FITC-bound material at 498 nm and dividing by the extinction coefficient of fluorescein, […]. The molar ratio of fluorescein to peptide (mole FITC/mole peptide) was then determined. […]

ob/ob mice [3] = experiment: Body weight, food intake and glucose clearance, 14-day oral dosing; type: in vivo; details: 1 μg/mouse orally twice daily for fourteen days, versus scrambled peptide
Protocol: Sixteen female ob/ob mice, 8 weeks old, (Jackson Labs, Bar Harbor, Me.) were adapted to a special 4 hour daily feeding schedule for two weeks. The were fed ad libitum from 7:30-11:30 am daily. After two weeks on the feeding schedule, the mice were divided into two groups of 8. One group was given 1.0 μg/mouse of zsig33-1 (14 amino acid peptide) and the other vehicle (a 14 amino acid scrambled sequence peptide) in […] sterile 0.1% BSQA by oral gavage just prior to receiving food, and at the end of the 4 hour feeding period. The mice were […] twice daily for fourteen days, during which time food intake and body weight was measured daily. On day 14, immediately after the second oral gavage of the zsig33-1 peptide, the mice were challenged orally with an 0.5 ml volume of 25% glucose. Retro-orbital bleeds were done to determine serum glucose levels immediately prior to administration of the zsig33-1 peptide or vehicle ([…].), and also at 0, 1, 2, and 4 hours following the glucose challenge.

[4] = test system: stomachs of fasted male Sprague-Dawley rats; experiment: Gastric emptying: transit of phenol red through the stomach; type: in vivo; details: 1 μg applied topically to the stomach 5 minutes after gavage, read 30 minutes after the gavage
Protocol: The effect of topically applied zsig33 peptide (amino acid 24 to 37 of SEQ ID NO: 2) on the transit of phenol red through the stomachs of fasted male Sprague-Dawley rats (Harlan, Indianapolis, Ind.) was evaluated. The rats (6 animals, 8 weeks old) were fasted 24 hrs prior to being anesthetized with urethane (0.5 ml/100 grams of 25% solution). After anesthetizing, the animals were orally gavaged with 1 ml of Phenol Red solution (50 μg/ml in 2% methylcellulose solution).
The stomach of each animal was exposed through a small abdominal incision and either 1 μg zsig33 peptide or a 14 amino acid control of a scrambled sequence peptide was applied topically to the stomach five minutes following the gavage. The amount of Phenol Red remaining in the stomach was determined by measuring optical density of the extracted stomach contents 30 minutes after the gavage.

| Compound | amplitude of the NE-induced decrease relative to the acetylcholine-induced increase in distance ([1]; 10 ml of 1 mM applied topically) | change in distance between the two crystals ([1]; 10 ml of 1 mM applied topically to the stomach, anesthetized rats) | post-prandial glucose absorption (serum glucose) (ob/ob mice [2]) | fluorescence in duodenum, jejunum and kidney compared to the glycine and scrambled controls (Balb C male mice) | daily body weight (ob/ob mice [3]) | daily food intake (ob/ob mice [3]) | reduction of the amount of Phenol Red remaining in the stomach compared to a scrambled peptide [4] | change in crystal distance ([1]; 1 μg peptide in PBS applied topically) | rate and amplitude of the contractions ([1]; 10 μg and 100 μg applied topically, compared with 1 μg) |
| --- | --- | --- | --- | --- | --- | --- | --- | --- | --- |
| NC[C@H](O)c1ccc(O)c(O)c1 [norepinephrine, reference compound] | approximately 50% | reduction in the distance between the two crystals | – | – | – | – | – | – | – |
| zsig33-1: 14 amino acid peptide corresponding to residue 24 (Gly) to residue 37 (Gln) of SEQ ID NO:2 (GSSFLSPEHQRVQQ; listed as Homo sapiens) | – | – | enhanced post-prandial glucose absorption | increased fluorescence in duodenum, jejunum and in the collecting ducts and convoluted tubules of the kidney | no affect | no affect | approximately 25% | sustained, rhythmic increase and decrease in crystal distance | enhanced responses in both rate and amplitude |
| zsig33-2: peptide consisting of residues 24 to 41 of SEQ ID NO:2 (GSSFLSPEHQRVQQRKES; listed as Homo sapiens) | – | – | – | increased fluorescence in duodenum, jejunum and in the collecting ducts and convoluted tubules of the kidney | – | – | – | – | – |
